From patent publication EP0302824A2 (priority 1987, dated 1989)

Legend:
D. balteata = test: Soil activity of seed applied furathiocarb on maize cultivars Centaurus and Arjuna; type: in vivo, Diabrotica balteata; design: key to Scores of damage caused by D. balteata: 0-6 crown-root damage scale: 0 = no damage, 6 = <3 roots connect stem to soil
Description: Plastic pots, 1 litre volume, are filled with soil to within 3 cm of the top. Three soil types are used: • 1. A natural soil from Stein, Canton Aargau, Switzerland. This is heat sterilized and sieved to give an agglomerate size of less than 5 mm. Its composition is clay 20.7%, silt 13.7%, sand 65.6%, organic matter 3.2%, pH 5.6. Moisture is adjusted to 20% of dry weight. • 2. An artificial mixture of fine quartz sand and milled neutralized peat (2% of total by dry weight). The moisture is adjusted to 10% of dry weight. • 3. An artificial mixture similar to (2) except that the neutralized peat comprised 6% by dry weight. Moisture is adjusted to 20% for the mixture.
One seed is sown 3 cm deep in the center of each of 10 pots per treatment. The pots are placed in a growth chamber with a relative humidity of 70% in a 12 hour daylength, light intensity 30,000 lux, using 26°C day and 22°C night temperatures. Soil moisture is maintained at the original level by daily irrigation with a commercially available nutrient solution.
After two or three weeks of plant growth, 40 larvae of the banded cucumber beetle (Diabrotica balteata) are scattered on the surface of each pot. This insect species is commonly used as a laboratory model for the corn rootworm (Diabrotica spp.) which is a common soil insect pest of maize (Zea mays) in the USA. For this test, second instar larvae are selected. They are reared on maize seedlings at 23°C for 13 days from egglaying. The surface of the soil in the pots is disturbed and 40 larvae are scattered on the surface. The disturbance encourages burrowing of the larvae.
The insects are allowed to feed on the plant roots for one week before the contents of each pot are separated into three components (roots, insects and soil) using a wet sieving technique. Living larvae are then counted and damage assessed on crown roots growing from the stem-base using the 0-6 scale shown below: • 0 = no damage • 1 = slight feeding damage, no roots eaten through • 2 = more than 3 places with feed damage, no roots eaten through • 3 = 1-2 roots eaten through • 4 = more than 2, but less than half the roots eaten • 5 = more than half the roots eaten, but at least 3 still connect stem and soil • 6 = less than 3 roots connect stem to soil
This example includes the results of test series using 2 maize cultivars Centaurus and Arjuna. The basic test procedure is described in detail under example 20 therefore only differences are mentioned here.
Seeds of the hybrid Centaurus are treated with 4 or 10 g/kg furathiocarb in either PVAc/PVAl or association polymer systems. The cultivar Arjuna is treated with 2.5 or 10 g/kg seed in the same polymer systems. The seeds are sown in two soil types, either a natural soil from Stein, Canton Aargau, Switzerland or in a 98% sand 2% peat mixture. Both these soil types are described previously.

[1] = Solubilization of furathiocarb in aqueous surfactant solutions, UV spectroscopy; type: physicochemical; details: for enhancement in the solubility (increase): 1000 ppm
Procedure: This example compares the solubilization of the biocide furathiocarb in a variety of aqueous surfactant solutions (1000 ppm). Experimental Note: 5 µl of furathiocarb (∼ 0.0060-0.0070 g) is pipetted into 10 ml aqueous solutions and stirred overnight. Analysis is performed by UV spectroscopy.

[2] = cultivar Arjuna, 98% Sand, 3 w, Association Polymer, dosage 2.5 g
[3] = cultivar Arjuna, 98% Sand, 3 w, Association Polymer, dosage 10 g
[4] = cultivar Arjuna, 98% Sand, 3 w, PVAc/PVAl, dosage 2.5 g
[5] = cultivar Arjuna, 98% Sand, 3 w, PVAc/PVAl, dosage 10 g
[6] = cultivar Arjuna, 98% Sand, 4 w, Association Polymer, dosage 2.5 g
[7] = cultivar Arjuna, 98% Sand, 4 w, Association Polymer, dosage 10 g
[8] = cultivar Arjuna, 98% Sand, 4 w, PVAc/PVAl, dosage 2.5 g
[9] = cultivar Arjuna, 98% Sand, 4 w, PVAc/PVAl, dosage 10 g
[10] = cultivar Arjuna, Stein Earth, 3 w, Association Polymer, dosage 2.5 g
[11] = cultivar Arjuna, Stein Earth, 3 w, Association Polymer, dosage 10 g
[12] = cultivar Arjuna, Stein Earth, 3 w, PVAc/PVAl, dosage 2.5 g
[13] = cultivar Arjuna, Stein Earth, 3 w, PVAc/PVAl, dosage 10 g
[14] = cultivar Arjuna, Stein Earth, 4 w, Association Polymer, dosage 2.5 g
[15] = cultivar Arjuna, Stein Earth, 4 w, Association Polymer, dosage 10 g
[16] = cultivar Arjuna, Stein Earth, 4 w, PVAc/PVAl, dosage 2.5 g
[17] = cultivar Arjuna, Stein Earth, 4 w, PVAc/PVAl, dosage 10 g
[18] = hybrid Centaurus, 98% Sand, 3 w, Association Polymer, dosage 4 g
[19] = hybrid Centaurus, 98% Sand, 3 w, Association Polymer, dosage 10 g
[20] = hybrid Centaurus, 98% Sand, 3 w, PVAc/PVAl, dosage 4 g
[21] = hybrid Centaurus, 98% Sand, 3 w, PVAc/PVAl, dosage 10 g
[22] = hybrid Centaurus, 98% Sand, 4 w, Association Polymer, dosage 4 g
[23] = hybrid Centaurus, 98% Sand, 4 w, Association Polymer, dosage 10 g
[24] = hybrid Centaurus, 98% Sand, 4 w, PVAc/PVAl, dosage 4 g
[25] = hybrid Centaurus, 98% Sand, 4 w, PVAc/PVAl, dosage 10 g
[26] = hybrid Centaurus, Stein Earth, 3 w, Association Polymer, dosage 4 g
[27] = hybrid Centaurus, Stein Earth, 3 w, Association Polymer, dosage 10 g
[28] = hybrid Centaurus, Stein Earth, 3 w, PVAc/PVAl, dosage 4 g
[29] = hybrid Centaurus, Stein Earth, 3 w, PVAc/PVAl, dosage 10 g
[30] = hybrid Centaurus, Stein Earth, 4 w, Association Polymer, dosage 4 g
[31] = hybrid Centaurus, Stein Earth, 4 w, Association Polymer, dosage 10 g
[32] = hybrid Centaurus, Stein Earth, 4 w, PVAc/PVAl, dosage 4 g
[33] = hybrid Centaurus, Stein Earth, 4 w, PVAc/PVAl, dosage 10 g

## CCCCOC(=O)N(C)SN(C)C(=O)Oc1cccc2c1OC(C)(C)C2 [furathiocarb]
D. balteata; [2]
  Percent D. balteata survival: 5%
  Scores of damage caused by D. balteata: 1.4
D. balteata; [3]
  Percent D. balteata survival: 8%
  Scores of damage caused by D. balteata: 1.2
D. balteata; [4]
  Percent D. balteata survival: 20%
  Scores of damage caused by D. balteata: 3.0
D. balteata; [5]
  Percent D. balteata survival: 20%
  Scores of damage caused by D. balteata: 2.8
D. balteata; [6]
  Percent D. balteata survival: 17%
  Scores of damage caused by D. balteata: 2.8
D. balteata; [7]
  Percent D. balteata survival: 0%
  Scores of damage caused by D. balteata: 0.6
D. balteata; [8]
  Percent D. balteata survival: 39%
  Scores of damage caused by D. balteata: 3.4
D. balteata; [9]
  Percent D. balteata survival: 21%
  Scores of damage caused by D. balteata: 3.2
D. balteata; [10]
  Percent D. balteata survival: 1%
  Scores of damage caused by D. balteata: 3.6
D. balteata; [11]
  Percent D. balteata survival: 1%
  Scores of damage caused by D. balteata: 1.8
D. balteata; [12]
  Percent D. balteata survival: 5%
  Scores of damage caused by D. balteata: 3.2
D. balteata; [13]
  Percent D. balteata survival: 3%
  Scores of damage caused by D. balteata: 3.0
D. balteata; [14]
  Percent D. balteata survival: 17%
  Scores of damage caused by D. balteata: 3.8
D. balteata; [15]
  Percent D. balteata survival: 0%
  Scores of damage caused by D. balteata: 2.3
D. balteata; [16]
  Percent D. balteata survival: 11%
  Scores of damage caused by D. balteata: 3.0
D. balteata; [17]
  Percent D. balteata survival: 14%
  Scores of damage caused by D. balteata: 3.4
D. balteata; [18]
  Percent D. balteata survival: 2%
  Scores of damage caused by D. balteata: 1.4
D. balteata; [19]
  Percent D. balteata survival: 4%
  Scores of damage caused by D. balteata: 0
D. balteata; [20]
  Percent D. balteata survival: 17%
  Scores of damage caused by D. balteata: 3.0
D. balteata; [21]
  Percent D. balteata survival: 8%
  Scores of damage caused by D. balteata: 1.8
D. balteata; [22]
  Percent D. balteata survival: 8%
  Scores of damage caused by D. balteata: 1.6
D. balteata; [23]
  Percent D. balteata survival: 8%
  Scores of damage caused by D. balteata: 1.2
D. balteata; [24]
  Percent D. balteata survival: 36%
  Scores of damage caused by D. balteata: 3.4
D. balteata; [25]
  Percent D. balteata survival: 30%
  Scores of damage caused by D. balteata: 3.6
D. balteata; [26]
  Percent D. balteata survival: 0%
  Scores of damage caused by D. balteata: 0.8
D. balteata; [27]
  Percent D. balteata survival: 1%
  Scores of damage caused by D. balteata: 1.0
D. balteata; [28]
  Percent D. balteata survival: 1%
  Scores of damage caused by D. balteata: 2.1
D. balteata; [29]
  Percent D. balteata survival: 1%
  Scores of damage caused by D. balteata: 1.0
D. balteata; [30]
  Percent D. balteata survival: 4%
  Scores of damage caused by D. balteata: 2.1
D. balteata; [31]
  Percent D. balteata survival: 7%
  Scores of damage caused by D. balteata: 1.9
D. balteata; [32]
  Percent D. balteata survival: 4%
  Scores of damage caused by D. balteata: 1.8
D. balteata; [33]
  Percent D. balteata survival: 10%
  Scores of damage caused by D. balteata: 2.2
[1]; 1000 ppm Alipal CO-433
  Solubility of Furathiocarb, ppm: 25 ppm
[1]; 1000 ppm Alipal EP110
  Solubility of Furathiocarb, ppm: 16 ppm
[1]; 1000 ppm Ethomeen T/15
  Solubility of Furathiocarb, ppm: 89 ppm
[1]; 1000 ppm Pluronic F68
  Solubility of Furathiocarb, ppm: 15 ppm
[1]; 1000 ppm Triton N101
  Solubility of Furathiocarb, ppm: 220 ppm
[1]; Ethomeen T/15 solution
  enhancement in the solubility (increase): 5 fold
[1]; H₂O
  Solubility of Furathiocarb, ppm: 15 ppm
[1]; Triton N101 solution
  enhancement in the solubility (increase): 14 fold
